Converted amounts (≈) assume the structure as drawn. “And” between values parts separate entries of the source, which are not always exact repeats. Equal entries are not always repeated.
Assays:
[1] = tested on: T. b. gambiense clinical isolates; test: In vitro trypanocidal assay, clinical isolates; assay type: cell-based; conditions: Trypanosoma brucei, six recent clinical isolates, data not shown
Method: Parasites were cultured with or without the test article at a concentration of 3×10^4/mL in Minimal Essential Medium, according to Baltz et al., with the following modifications: 0.2 mM 2-mercaptoethanol, 1 mM Na-pyruvate, 0.5 mM hypoxanthine and 15% heat inactivated horse serum at 37°C in 5% CO2 in 96-well microtitre plates for 72 h. 10 µL of Alamar Blue was added for the final 3 h to determine viability. The assay was assessed by reading the fluorescence in each well at an excitation wavelength of 536 nm and at an emission wavelength of 588 nm. The IC50 values were calculated from the sigmoidal inhibition curves. For cytotoxicity, 4×10^4/mL L-6 rat skeletal myoblast cells were used, and incubations and assessments carried out as above.

[2] = biological target: CYP1A2 (Homo sapiens, UniProt P05177); test: In vitro CYP-450 metabolism; assay type: in vitro ADME; conditions: 1.0 µM, up to 60 min
Method: (§1) Duplicate samples of human recombinant CYP enzyme isotypes CYP1A2, CYP2B6, CYP2C8, CYP2C9, CYP2C19, CYP2D6, CYP3A4, CYP3A5 (10–30 pmol/mL) with NADPH as cofactor were incubated with fexinidazole, fexinidazole sulfoxide, or fexinidazole sulfone at a concentration of 1.0 µM for up to 60 min (pH 7.4, 37°C). Detection of the compounds was via HPLC-MS.

[3] = biological target: CYP2B6 (Homo sapiens, UniProt P20813); test: In vitro CYP-450 metabolism; assay type: in vitro ADME; conditions: 1.0 µM, up to 60 min
Method: as §1

[4] = biological target: CYP2C19 (Homo sapiens, UniProt P33261); test: In vitro CYP-450 metabolism; assay type: in vitro ADME; conditions: 1.0 µM, up to 60 min
Method: as §1

[5] = biological target: CYP2C8 (Homo sapiens, UniProt P10632); test: In vitro CYP-450 metabolism; assay type: in vitro ADME; conditions: 1.0 µM, up to 60 min
Method: as §1

[6] = biological target: CYP2C9 (Homo sapiens, UniProt P11712); test: In vitro CYP-450 metabolism; assay type: in vitro ADME; conditions: 1.0 µM, up to 60 min
Method: as §1

[7] = biological target: CYP3A4 (Homo sapiens, UniProt P08684); test: In vitro CYP-450 metabolism; assay type: in vitro ADME; conditions: 1.0 µM, up to 60 min
Method: as §1

[8] = biological target: CYP3A5 (Homo sapiens, UniProt P20815); test: In vitro CYP-450 metabolism; assay type: in vitro ADME; conditions: 1.0 µM, up to 60 min
Method: as §1

[9] = Whole-body autoradiography; assay type: in vivo, rat
Method: Whole-body autoradiography in rats was conducted using [^14C]-radiolabelled fexinidazole. The site of the [^14C] label in the fexinidazole molecule on the bridging carbon atom ensured that the radioactivity would remain associated with both the sulfoxide and sulfone metabolites. The radiolabelled compound was administered at the dose of 800 mg/kg (approximately 3.7 MBq/kg, 100 µCi/kg) by gastric gavage to eight male albino Sprague Dawley rats. Two animals were sacrificed at each time point 2, 8, 24 or 48 h after administration and the quantitative radioactivity distribution in the organs and tissues was evaluated using quantitative whole-body autoradiography. […]
This study was conducted according to Protocol N° 0510-2007. A copy of the experimental protocol is included in Appendix 1.
FEXINIDAZOLE is a 5-nitroimidazole derivative biologically active against Trypanosoma parasites (T.b. rhodesiense and T.b. brucei) and useful in the treatment of the Human African Trypanosomiasis (HAT), known as sleeping sickness.
FEXINIDAZOLE is a compound currently under development by the Study Sponsor.
The objective of this study was to obtain information on the tissue distribution of radioactive drug-related material following oral administration of [14C]-FEXINIDAZOLE (800 mg/kg) to male Sprague Dawley rats.
The albino Sprague Dawley rat was chosen as the species for this study since it was one of the species used in the toxicological evaluation of the test compound. Only male animals were used as no gender differences were expected with respect to the aim of the study. The oral route of administration was chosen as this is the intended therapeutic route. The dose level was selected in agreement with the Study Sponsor and it is within the pharmacological relevant range. No overt toxicity was expected after single dosing at […]
The study was conducted on 8 male animals after single oral administration of [14C]- FEXINIDAZOLE (800 mg/kg, approximately 3.7 MBq/kg, 100 µCi/kg). The animals were sacrificed at 2, 8,24 and 48 hours after administration and each rat was analyzed by a validated Whole Body Autoradioluminography (WBA) method, in order to evaluate the quantitative tissue distribution of radioactivity.
A summary of the experimental design is reported below:
Animal no. Date of Dosing Administered Dose Samples collected and (oral administration) analyzed
M3, M4 100 µCi/kg Whole body sections
The experimental phase of the study started on June 10, 2008 and was completed on July […]
6.6. Preparation and Analysis of Dose Formulation
The test formulation was prepared on the day of dosing by suspending unlabelled FEXINIDAZOLE and [14C]-FEXINIDAZOLE (see section 6.1) in 5% Tween 80 and 0.5% Methyl cellulose 400 cP (Methocel) in water, in order to obtain [14C]- FEXINIDAZOLE at the final target concentration of 80 mg/mL, corresponding to a radioactivity concentration of about 370 kBq/mL (10 µCi/mL).
The test formulation was prepared by suspending an appropriate amount of unlabelled FEXINIDAZOLE in the dose vehicle. This formulation was homogenised using a Potter-Elvehjem homogenizer apparatus (teflon pestle of approx. 30 mm x 53 mm and glass tube of 40 mL), in order to obtain a fine suspension by up-and-down strokes, gently made by hand. The formulation was then collected and transferred from the homogeniser glass tube to the glass pot containing the [14C]-FEXINIDAZOLE.
During the preparation the test formulation was protected from light as far as possible.
The radioactivity concentration and homogeneity of the test formulation were determined, before administration, by liquid scintillation counting of triplicate weighed aliquots of test formulation. The radiolabelled test formulation was used immediately after formulation.
6.7.1. Administered Doses
The dose of [14C]-FEXINIDAZOLE was orally administered by gastric gavage at the target dose level of 800 mg/kg (radioactivity dose of about 3.7 MBq/kg, 100 µCi/kg) and at a target dose volume of about 10 mL/kg. […]

[10] = Stability of drug substance and dosing suspensions; assay type: physicochemical; conditions: stability data to date
Method: page 4: […] Pharmacokinetic Report for the study No. 0403-2007 4. METHODS […] […] 4.2. […] The suspensions were stored at +4°C. […] Three samples were analyzed for each suspension. 4.3. […] Blood was taken at […] 4.4.

CYP2C8, sequence (P10632 whole entry): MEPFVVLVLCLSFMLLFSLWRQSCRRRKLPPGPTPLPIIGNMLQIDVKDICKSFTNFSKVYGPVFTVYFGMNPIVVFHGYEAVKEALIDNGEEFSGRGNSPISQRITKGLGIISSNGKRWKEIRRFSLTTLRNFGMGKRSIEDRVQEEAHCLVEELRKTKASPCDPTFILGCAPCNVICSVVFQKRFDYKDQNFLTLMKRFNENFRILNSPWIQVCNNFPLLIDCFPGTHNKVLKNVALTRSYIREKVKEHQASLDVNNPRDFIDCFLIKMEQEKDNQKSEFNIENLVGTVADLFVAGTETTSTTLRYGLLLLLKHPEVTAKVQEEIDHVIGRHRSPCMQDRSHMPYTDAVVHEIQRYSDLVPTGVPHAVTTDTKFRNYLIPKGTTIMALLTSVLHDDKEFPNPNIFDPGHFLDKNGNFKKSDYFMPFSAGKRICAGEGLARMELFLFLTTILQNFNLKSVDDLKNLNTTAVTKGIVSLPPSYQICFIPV
CYP3A4, sequence (P08684 whole entry): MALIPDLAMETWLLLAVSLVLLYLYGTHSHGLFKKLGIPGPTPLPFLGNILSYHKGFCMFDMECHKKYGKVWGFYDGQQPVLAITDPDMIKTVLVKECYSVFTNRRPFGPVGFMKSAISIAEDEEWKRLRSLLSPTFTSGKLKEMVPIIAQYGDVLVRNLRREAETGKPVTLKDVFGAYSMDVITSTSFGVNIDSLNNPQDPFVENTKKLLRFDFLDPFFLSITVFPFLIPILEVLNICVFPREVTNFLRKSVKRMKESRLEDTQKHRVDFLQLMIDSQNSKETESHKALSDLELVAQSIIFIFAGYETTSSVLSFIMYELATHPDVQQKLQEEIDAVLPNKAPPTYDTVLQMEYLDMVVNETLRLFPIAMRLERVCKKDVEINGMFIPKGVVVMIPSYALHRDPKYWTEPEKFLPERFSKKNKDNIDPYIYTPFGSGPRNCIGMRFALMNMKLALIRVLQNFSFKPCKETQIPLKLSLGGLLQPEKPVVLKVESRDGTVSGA
CYP2B6, sequence (P20813 whole entry): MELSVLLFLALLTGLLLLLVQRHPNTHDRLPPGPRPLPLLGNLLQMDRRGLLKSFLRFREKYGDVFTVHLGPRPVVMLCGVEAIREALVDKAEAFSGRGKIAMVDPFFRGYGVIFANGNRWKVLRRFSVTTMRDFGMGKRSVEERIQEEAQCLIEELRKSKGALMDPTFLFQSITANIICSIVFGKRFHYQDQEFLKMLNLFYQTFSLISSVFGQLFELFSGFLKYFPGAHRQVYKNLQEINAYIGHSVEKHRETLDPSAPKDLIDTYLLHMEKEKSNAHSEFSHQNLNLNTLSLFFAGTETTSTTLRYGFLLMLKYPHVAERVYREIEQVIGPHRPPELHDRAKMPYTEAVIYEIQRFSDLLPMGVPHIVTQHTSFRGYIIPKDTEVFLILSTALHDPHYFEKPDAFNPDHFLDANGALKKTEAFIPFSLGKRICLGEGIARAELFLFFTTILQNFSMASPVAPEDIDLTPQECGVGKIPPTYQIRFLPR
CYP1A2, sequence (P05177 whole entry): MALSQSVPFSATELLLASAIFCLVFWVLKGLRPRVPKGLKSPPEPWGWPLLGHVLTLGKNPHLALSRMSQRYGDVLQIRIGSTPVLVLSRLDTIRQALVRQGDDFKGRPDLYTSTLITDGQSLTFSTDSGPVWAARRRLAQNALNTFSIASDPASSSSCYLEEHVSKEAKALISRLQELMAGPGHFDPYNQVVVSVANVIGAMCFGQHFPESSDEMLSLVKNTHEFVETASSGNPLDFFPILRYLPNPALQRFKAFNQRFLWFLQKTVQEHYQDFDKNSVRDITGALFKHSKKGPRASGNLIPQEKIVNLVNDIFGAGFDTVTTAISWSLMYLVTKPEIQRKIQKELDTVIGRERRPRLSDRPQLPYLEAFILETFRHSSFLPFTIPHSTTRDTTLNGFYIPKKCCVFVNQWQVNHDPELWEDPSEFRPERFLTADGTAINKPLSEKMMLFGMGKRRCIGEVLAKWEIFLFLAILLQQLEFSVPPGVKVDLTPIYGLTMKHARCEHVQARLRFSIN
CYP2C19, sequence (P33261 whole entry): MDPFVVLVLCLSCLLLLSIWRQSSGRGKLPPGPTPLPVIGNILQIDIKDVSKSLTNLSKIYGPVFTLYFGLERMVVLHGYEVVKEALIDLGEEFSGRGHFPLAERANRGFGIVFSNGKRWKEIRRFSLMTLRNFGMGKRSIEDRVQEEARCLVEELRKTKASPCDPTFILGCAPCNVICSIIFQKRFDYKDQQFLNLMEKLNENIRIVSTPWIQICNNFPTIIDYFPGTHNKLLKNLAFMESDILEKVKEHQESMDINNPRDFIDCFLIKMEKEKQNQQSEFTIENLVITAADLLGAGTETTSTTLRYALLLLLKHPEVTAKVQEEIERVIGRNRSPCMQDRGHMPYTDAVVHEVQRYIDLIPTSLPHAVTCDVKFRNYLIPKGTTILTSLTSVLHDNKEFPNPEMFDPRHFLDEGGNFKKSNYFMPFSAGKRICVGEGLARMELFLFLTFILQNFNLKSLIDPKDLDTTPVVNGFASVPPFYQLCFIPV
CYP2C9, sequence (P11712 whole entry): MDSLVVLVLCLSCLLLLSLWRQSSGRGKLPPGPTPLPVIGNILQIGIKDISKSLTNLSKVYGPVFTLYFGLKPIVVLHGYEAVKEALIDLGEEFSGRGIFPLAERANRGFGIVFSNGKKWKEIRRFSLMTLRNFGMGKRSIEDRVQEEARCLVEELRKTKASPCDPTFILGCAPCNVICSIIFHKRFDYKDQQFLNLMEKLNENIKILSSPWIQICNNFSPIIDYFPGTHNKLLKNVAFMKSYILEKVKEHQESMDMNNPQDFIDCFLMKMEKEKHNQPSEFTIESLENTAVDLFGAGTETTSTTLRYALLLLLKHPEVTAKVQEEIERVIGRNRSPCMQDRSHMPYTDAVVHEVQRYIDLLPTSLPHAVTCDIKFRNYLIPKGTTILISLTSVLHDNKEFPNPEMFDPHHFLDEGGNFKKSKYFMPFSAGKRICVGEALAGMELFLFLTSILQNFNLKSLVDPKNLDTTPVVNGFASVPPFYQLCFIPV
CYP3A5, sequence (P20815 whole entry): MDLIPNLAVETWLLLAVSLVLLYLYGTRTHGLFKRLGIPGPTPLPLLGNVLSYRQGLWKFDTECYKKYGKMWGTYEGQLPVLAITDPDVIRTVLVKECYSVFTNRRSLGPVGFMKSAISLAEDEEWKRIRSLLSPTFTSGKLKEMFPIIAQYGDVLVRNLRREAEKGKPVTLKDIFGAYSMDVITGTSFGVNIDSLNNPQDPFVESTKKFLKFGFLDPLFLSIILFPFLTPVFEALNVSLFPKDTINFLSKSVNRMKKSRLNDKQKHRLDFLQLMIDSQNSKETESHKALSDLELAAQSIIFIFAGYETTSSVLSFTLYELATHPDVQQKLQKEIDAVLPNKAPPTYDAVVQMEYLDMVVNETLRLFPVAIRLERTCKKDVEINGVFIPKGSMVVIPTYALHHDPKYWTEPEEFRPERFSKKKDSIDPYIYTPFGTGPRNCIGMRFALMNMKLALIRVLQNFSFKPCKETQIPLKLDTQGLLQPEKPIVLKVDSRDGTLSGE

## CSc1ccc(OCc2ncc([N+](=O)[O-])n2C)cc1 [Fexinidazole, 1-methyl-2-((p-(methylthio)phenoxy)methyl)-5-nitroimidazole]
[1]
  IC50: 0.3 to 0.93 µg/mL (≈ 1.07 to 3.33 µM)
[2]
  metabolism by the enzyme: extensively metabolised
[3]
  metabolism by the enzyme: extensively metabolised
[4]
  metabolism by the enzyme: extensively metabolised
[5]
  metabolism by the enzyme: inactive
[6]
  metabolism by the enzyme: inactive
[7]
  metabolism by the enzyme: extensively metabolised
[8]
  metabolism by the enzyme: extensively metabolised
[9]; 800 mg/kg po, all times
  brain-to-blood concentration ratio of radioactivity: 0.4–0.6
[9]; Blood, 2h
  Mean radioactivity concentration: 303.2 µgeq/g
[9]; Blood, 8h
  Mean radioactivity concentration: 273.0 µgeq/g
[9]; Blood, 24h
  Mean radioactivity concentration: 51.3 µgeq/g
[9]; Blood, 48h
  Mean radioactivity concentration: 14.3 µgeq/g
[9]; Brain, 2h
  Mean radioactivity concentration: 159.7 µgeq/g
[9]; Brain, 8h
  Mean radioactivity concentration: 148.5 µgeq/g
[9]; Brain, 24h
  Mean radioactivity concentration: 22.4 µgeq/g
[9]; Brain, 48h
  Mean radioactivity concentration: 5.7 µgeq/g
[9]; Intestine wall, 2h, listed as [14C]-FEXINIDAZOLE
  Radioactivity concentration: 4900 - 5600 µgeq/g and 5281.4 µgeq/g
[10]
  stability: very stable
